Measurements as given in patent US20260116868A1 (Arcus Biosciences, Inc., priority 2023, published 2026).
Like-named read-outs stand apart in the source and are kept apart here.

Tests used:
[1] = molecular target: T1, Cbl-b (Homo sapiens, UniProt Q13191); assay: Cbl-b probe displacement HTRF binding assay; details: 0.4 nM Cbl-b, 150 nM BODIPY probe
T1 construct: biotin (biotinylated protein)
Outline: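 Binding IC50 from four-parameter fit of HTRF signal loss, normalised to DMSO (0%) and no-protein (100%) wells. Biotinylated Cbl-b 0.4 nM was preincubated 60 min with compound (20-point 1:2 dilution) before 15 min with 150 nM BODIPY probe; Tb-streptavidin detection.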

[2] = test system: Jurkat cells; assay: IL-2 secretion assay in Jurkat cells activated with CD3/CD28 T Cell Activator; type: cell-based; details: Homo sapiens, 24 h, read-out: IL-2 Secretion (EC50)
Description: Certain compounds were also evaluated in an IL-2 secretion assay. On the day of the assay, a 16 point, 1:2 master serial dilution of each compound was prepared in Opti-MEM to span a final concentration range of 10 μM to 300 pM. Assays were set up in CORNING® tissue culture-treated 384-well microplates containing 60 nL of each dilution. Jurkat cells grown in RPMI-1640 supplemented with 10% FBS, 1% Glutamax, and 1% Pen/Strep were collected, resuspended in Opti-MEM. 50,000 cells/well and added to the compound plates. After a short spin (1200 rpm for 1 min), the plates were incubated at 37° C. for 1 hour. The cells were activated by adding 15 μL of IMMUNOCULT™ Human CD3/CD28 T Cell Activator (STEMCELL Technologies) diluted in Opti-MEM. After 24 h of incubation at 37° C., aliquots of culture supernatants were transferred to OptiPlate-384 (PerkinElmer) microplates. The level of IL-2 secretion in the supernatants was then determined using the IL-2 (human) AlphaLISA Detection Kit (PerkinElmer) according to the manufacturer's recommendations. The AlphaLISA signal was measured using an EnVision plate reader (PerkinElmer). EC50 values were determined by fitting the data to a standard 4-parameter logistic equation. See Table 7 for data for select compounds (IL-2 Secretion (EC50)).

[3] = Jurkat cells, CD3/CD28 T Cell Activator, IL-2 AlphaLISA

T1 sequence (Q13191 whole entry, species assumed): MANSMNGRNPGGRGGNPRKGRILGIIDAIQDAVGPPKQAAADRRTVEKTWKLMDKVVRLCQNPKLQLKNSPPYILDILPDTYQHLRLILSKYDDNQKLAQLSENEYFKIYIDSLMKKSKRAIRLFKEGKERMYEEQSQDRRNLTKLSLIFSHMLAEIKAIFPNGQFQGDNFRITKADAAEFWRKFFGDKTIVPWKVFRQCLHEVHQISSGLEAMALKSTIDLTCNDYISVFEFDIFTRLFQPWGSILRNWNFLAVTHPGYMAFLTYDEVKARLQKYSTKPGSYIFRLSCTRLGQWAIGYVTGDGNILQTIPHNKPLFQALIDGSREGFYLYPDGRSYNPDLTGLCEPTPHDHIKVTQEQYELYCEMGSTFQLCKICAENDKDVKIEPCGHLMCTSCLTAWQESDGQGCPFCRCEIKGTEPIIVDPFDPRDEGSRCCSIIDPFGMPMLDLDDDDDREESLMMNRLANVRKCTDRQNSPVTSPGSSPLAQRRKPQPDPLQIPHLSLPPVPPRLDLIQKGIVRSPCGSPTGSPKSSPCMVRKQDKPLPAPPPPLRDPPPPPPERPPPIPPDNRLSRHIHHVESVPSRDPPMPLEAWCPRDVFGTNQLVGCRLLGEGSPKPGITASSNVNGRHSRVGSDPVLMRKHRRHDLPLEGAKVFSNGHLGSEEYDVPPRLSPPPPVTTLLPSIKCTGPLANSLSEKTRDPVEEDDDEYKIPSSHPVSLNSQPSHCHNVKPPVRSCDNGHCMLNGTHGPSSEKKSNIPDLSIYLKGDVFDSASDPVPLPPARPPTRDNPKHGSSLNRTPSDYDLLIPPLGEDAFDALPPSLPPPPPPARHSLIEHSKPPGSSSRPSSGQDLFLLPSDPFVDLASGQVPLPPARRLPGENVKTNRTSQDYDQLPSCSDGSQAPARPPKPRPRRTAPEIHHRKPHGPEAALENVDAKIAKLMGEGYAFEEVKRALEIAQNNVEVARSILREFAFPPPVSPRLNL

## COCCNCc1cc(C(=O)Nc2cc(-c3ccc(C#N)cc3-c3nccn3C)cc(C3CC3)n2)c(=O)n(C2CC2)c1 [Example 42, N-{4-[4-cyano-2-(1-methyl-2-imidazolyl)phenyl]-6-cyclopropyl-2-pyridyl}-1-cyclopropyl-5-[(2-methoxyethylamino)methyl]-2-oxo-1,2-dihydronicotinamide]
[1]
  IC50: < 100 nM
[2]; [3]
  EC50: < 100 nM

## COCCNCc1cc(C(=O)Nc2cc(-c3ccc(F)cc3-n3nccc3C)cc(C3CC3)n2)c(=O)n(C2CC2)c1 [Example 70, 1-Cyclopropyl-N-[6-cyclopropyl-4-[4-fluoro-2-(5-methylpyrazol-1-yl)phenyl]pyridin-2-yl]-5-[(2-methoxyethylamino)methyl]-2-oxopyridine-3-carboxamide]
[1]
  IC50: < 100 nM
[2]; [3]
  EC50: 100 to 1000 nM

## COCCNCc1cc(C(=O)Nc2cc(-c3ccc(C#N)cc3-c3nc(C(F)(F)F)cn3C)cc(C3CC3)n2)c(=O)n(C2CC2)c1 [Example 46, N-(4-{4-cyano-2-[1-methyl-4-(trifluoromethyl)-2-imidazolyl]phenyl}-6-cyclopropyl-2-pyridyl)-1-cyclopropyl-5-[(2-methoxyethylamino)methyl]-2-oxo-1,2-dihydronicotinamide]
[1]
  IC50: 100 to 1000 nM
[2]; [3]
  EC50: 1000 to 5000 nM

## CC(C)n1cc(CN2CCC[C@H](C)C2)cc(C(=O)Nc2cc(-c3ccc(F)cc3-c3nncn3C)cc(C3CC3)n2)c1=O [Example 57, N-[6-cyclopropyl-4-[4-fluoro-2-(4-methyl-1,2,4-triazol-3-yl)phenyl]pyridin-2-yl]-5-[[(3S)-3-methylpiperidin-1-yl]methyl]-2-oxo-1-propan-2-ylpyridine-3-carboxamide]
[1]
  IC50: < 100 nM
[2]; [3]
  EC50: < 100 nM

## C=CCn1cc(CN(C)C)cc(C(=O)Nc2cc(-c3ccc(F)cc3-c3nncn3C)cc(C3CC3)n2)c1=O [Example 34, N-{6-Cyclopropyl-4-[4-fluoro-2-(4-methyl-4H-1,2,4-triazol-3-yl)phenyl]-2-pyridyl}-1-allyl-5-[(dimethylamino)methyl]-2-oxo-1,2-dihydronicotinamide]
[1]
  IC50: < 100 nM
[2]; [3]
  EC50: 1000 to 5000 nM

## COCCNCc1cc(C(=O)Nc2cc(-c3ccc(F)cc3-n3cc(CF)nn3)cc(C3CC3)n2)c(=O)n(C2CC2)c1 [Example 73, 1-Cyclopropyl-N-[6-cyclopropyl-4-[4-fluoro-2-[4-(fluoromethyl)triazol-1-yl]phenyl]pyridin-2-yl]-5-[(2-methoxyethylamino)methyl]-2-oxopyridine-3-carboxamide]
[1]
  IC50: 100 to 1000 nM
[2]; [3]
  EC50: 1000 to 5000 nM

## CO[C@H]1CCC[C@@H]1NCc1cc(C(=O)Nc2cc(-c3ccc(C#N)cc3C(=O)N3CC(F)(F)C3)cc(C3CC3)n2)c(=O)n(CC(F)(F)F)c1 [Example 154, N-[4-[4-cyano-2-(3,3-difluoroazetidine-1-carbonyl)phenyl]-6-cyclopropylpyridin-2-yl]-5-[[[(1S,2S)-2-methoxycyclopentyl]amino]methyl]-2-oxo-1-(2,2,2-trifluoroethyl)pyridine-3-carboxamide]
[1]
  IC50: < 100 nM
[2]; [3]
  EC50: < 100 nM

## Cn1ccnc1-c1cc(C#N)ccc1-c1cc(NC(=O)c2cc(CO)cn(C3CC3)c2=O)nc(C2CC2)c1 (single isomer, unassigned) [Example 37, N-{4-[4-cyano-2-(1-methyl-2-imidazolyl)phenyl]-6-cyclopropyl-2-pyridyl}-1-cyclopropyl-5-(hydroxymethyl)-2-oxo-1,2-dihydronicotinamide]
[1]
  IC50: 100 to 1000 nM
[2]; [3]
  EC50: > 5000 nM

## CC(C)CNCc1cc(C(=O)Nc2cc(-c3ccc(Cl)cc3C(=O)N3CC(F)(F)C3)cc(C3CC3)n2)c(=O)n(C)c1 [Example 106, N-[4-[4-chloro-2-(3,3-difluoroazetidine-1-carbonyl)phenyl]-6-cyclopropylpyridin-2-yl]-1-methyl-5-[(2-methylpropylamino)methyl]-2-oxopyridine-3-carboxamide]
[1]
  IC50: < 100 nM
[2]; [3]
  EC50: < 100 nM

## CC(C)Cn1cc(CN2CCC[C@H](C)C2)cc(C(=O)Nc2cc(-c3ccc(F)cc3-c3nncn3C)cc(C3CC3)n2)c1=O [Example 61, N-[6-cyclopropyl-4-[4-fluoro-2-(4-methyl-1,2,4-triazol-3-yl)phenyl]pyridin-2-yl]-5-[[(3S)-3-methylpiperidin-1-yl]methyl]-1-(2-methylpropyl)-2-oxopyridine-3-carboxamide]
[1]
  IC50: < 100 nM
[2]; [3]
  EC50: < 100 nM

## CO[C@@H](C)[C@H](C)NCc1cc(C(=O)Nc2cc(-c3ccc(F)cc3-c3nncn3C)cc(C3CC3)n2)c(=O)n(C2CC2)c1 [Example 23, N-{6-cyclopropyl-4-[4-fluoro-2-(4-methyl-4H-1,2,4-triazol-3-yl)phenyl]-2-pyridyl}-5-{[(1S,2S)-2-methoxy-1-methylpropylamino]methyl}-1-cyclopropyl-2-oxo-1,2-dihydronicotinamide]
[1]
  IC50: < 100 nM
[2]; [3]
  EC50: < 100 nM

## COCCNCc1cc(C(=O)Nc2cc(-c3ccc(C#N)cc3-c3nc(C#N)cn3C)cc(C3CC3)n2)c(=O)n(CC2CC2)c1 [Example 63, N-{4-[4-cyano-2-(4-cyano-1-methyl-2-imidazolyl)phenyl]-6-cyclopropyl-2-pyridyl}-1-(cyclopropylmethyl)-5-[(2-methoxyethylamino)methyl]-2-oxo-1,2-dihydronicotinamide]
[1]
  IC50: < 100 nM
[2]; [3]
  EC50: 100 to 1000 nM

## Cn1cnnc1-c1cc(F)ccc1-c1cc(NC(=O)c2cc(CNCCC(F)(F)F)cn(C3CC3)c2=O)nc(C2CC2)c1 [Example 15, N-{6-cyclopropyl-4-[4-fluoro-2-(4-methyl-4H-1,2,4-triazol-3-yl)phenyl]-2-pyridyl}-1-cyclopropyl-2-oxo-5-[(3,3,3-trifluoropropylamino)methyl]-1,2-dihydronicotinamide]
[1]
  IC50: < 100 nM
[2]; [3]
  EC50: < 100 nM

## COCCNCc1cc(C(=O)Nc2cc(-c3ccc(C#N)cc3-c3[nH]c(C)nc3C)cc(C3CC3)n2)c(=O)n(C2CC2)c1 [Example 54, N-{4-[4-cyano-2-(2,4-dimethyl-5-imidazolyl)phenyl]-6-cyclopropyl-2-pyridyl}-1-cyclopropyl-5-[(2-methoxyethylamino)methyl]-2-oxo-1,2-dihydronicotinamide]
[1]
  IC50: < 100 nM
[2]; Jurkat
  EC50: 100 to 1000 nM

## Cn1ccnc1-c1cc(C#N)ccc1-c1cc(NC(=O)c2cc(CNCCOC(F)(F)F)cn(C3CC3)c2=O)nc(C2CC2)c1 [Example 40, N-{4-[4-cyano-2-(1-methyl-2-imidazolyl)phenyl]-6-cyclopropyl-2-pyridyl}-1-cyclopropyl-2-oxo-5-[(2-trifluoromethoxyethylamino)methyl]-1,2-dihydronicotinamide]
[1]
  IC50: < 100 nM
[2]; [3]
  EC50: 100 to 1000 nM

## COC[C@@H](C)NCc1cc(C(=O)Nc2cc(-c3ccc(F)cc3-c3nncn3C)cc(C3CC3)n2)c(=O)n(C2CC2)c1 [Example 21, N-{6-cyclopropyl-4-[4-fluoro-2-(4-methyl-4H-1,2,4-triazol-3-yl)phenyl]-2-pyridyl}-5-{[(R)-2-methoxy-1-methylethylamino]methyl}-1-cyclopropyl-2-oxo-1,2-dihydronicotinamide]
[1]
  IC50: < 100 nM
[2]; [3]
  EC50: < 100 nM

## COC(F)(F)CNCc1cc(C(=O)Nc2cc(-c3ccc(F)cc3-c3nncn3C)cc(C3CC3)n2)c(=O)n(C2CC2)c1 [Example 19, N-{6-cyclopropyl-4-[4-fluoro-2-(4-methyl-4H-1,2,4-triazol-3-yl)phenyl]-2-pyridyl}-1-cyclopropyl-5-[(2,2-difluoro-2-methoxyethylamino)methyl]-2-oxo-1,2-dihydronicotinamide]
[1]
  IC50: < 100 nM
[2]; [3]
  EC50: 100 to 1000 nM

## COCCNCc1cc(C(=O)Nc2cc(-c3ccc(C#N)cc3-c3nncn3C)cc(C3CC3)n2)c(=O)n(C2CC2)c1 [Example 3, N-[4-[4-cyano-2-(4-methyl-1,2,4-triazol-3-yl)phenyl]-6-cyclopropylpyridin-2-yl]-1-cyclopropyl-5-[(2-methoxyethylamino)methyl]-2-oxopyridine-3-carboxamide]
[1]
  IC50: < 100 nM
[2]; [3]
  EC50: < 100 nM

## COCCNCc1cc(C(=O)Nc2cc(-c3ccc(F)cc3-n3nncc3CF)cc(C3CC3)n2)c(=O)n(C2CC2)c1 [Example 72, 1-Cyclopropyl-N-[6-cyclopropyl-4-[4-fluoro-2-[5-(fluoromethyl)triazol-1-yl]phenyl]pyridin-2-yl]-5-[(2-methoxyethylamino)methyl]-2-oxopyridine-3-carboxamide]
[1]
  IC50: < 100 nM
[2]; [3]
  EC50: 100 to 1000 nM

## Cn1cnnc1-c1cc(F)ccc1-c1cc(NC(=O)c2cc(-c3cc[nH]n3)cn(C3CC3)c2=O)nc(C2CC2)c1 [Example 27, N-{6-Cyclopropyl-4-[4-fluoro-2-(4-methyl-4H-1,2,4-triazol-3-yl)phenyl]-2-pyridyl}-1-cyclopropyl-2-oxo-5-(3-pyrazolyl)-1,2-dihydronicotinamide]
[1]
  IC50: 100 to 1000 nM
[2]; [3]
  EC50: > 5000 nM
